The source of these data is PubChem BioAssay AID256 (DTP/NCI, 2004).

Inconclusive results and toxic doses are left out.

The assay relates to CD2F1 mice, L1210 leukemia ip, survival T/C. In words: NCI In Vivo Anticancer Drug Screen. Data for tumor model L1210 Leukemia (intraperitoneal) in CD2F1 (CDF1) mice. The following applies: higher = longer survival. The essentials: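 Antitumor effect is scored in animals hosting a serially transplanted tumor. Values compare compound-dosed animals against vehicle-only controls as a simple quotient.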

[1] abbreviates: endpoint: mean survival time, dose: 100.0 mg/kg/injection, schedule: Q01DX009 (ip), vehicle: saline with Tween-80.
The mark [2] stands for this setting: endpoint: mean survival time, dose: 200.0 mg/kg/injection, schedule: Q01DX009 (ip), vehicle: saline with Tween-80.
The mark [3] stands for this setting: endpoint: mean survival time, dose: 400.0 mg/kg/injection, schedule: Q01DX009 (ip), vehicle: saline with Tween-80.
Where [4] appears, read: endpoint: mean survival time, dose: 100.0 mg/kg/injection, schedule: Q04DX003 (ip), vehicle: saline with Tween-80.
Where [5] appears, read: endpoint: mean survival time, dose: 200.0 mg/kg/injection, schedule: Q04DX003 (ip), vehicle: saline with Tween-80.
[6] abbreviates: endpoint: mean survival time, dose: 400.0 mg/kg/injection, schedule: Q04DX003 (ip), vehicle: saline with Tween-80.
Where [7] appears, read: endpoint: mean survival time, dose: 25.0 mg/kg/injection, schedule: Q01DX009 (ip), vehicle: saline.
[8] abbreviates: endpoint: mean survival time, dose: 50.0 mg/kg/injection, schedule: Q01DX009 (ip), vehicle: saline.
Setting [9] is: endpoint: mean survival time, dose: 100.0 mg/kg/injection, schedule: Q01DX009 (ip), vehicle: saline.
[10] abbreviates: endpoint: mean survival time, dose: 200.0 mg/kg/injection, schedule: Q01DX009 (ip), vehicle: saline.

For `CC(=O)Oc1cccc2c1C(=O)C1(O)C(C=O)=CC3OC(C)(C)OC2(C)C31` (stereo not given), the T/C reads like this: (endpoint: mean survival time, dose: 75.0 mg/kg/injection, schedule: Q01DX001 (ip), vehicle: other) 102 % of control; (endpoint: mean survival time, dose: 150.0 mg/kg/injection, schedule: Q01DX001 (ip), vehicle: other) 108 % of control; (endpoint: mean survival time, dose: 300.0 mg/kg/injection, schedule: Q01DX001 (ip), vehicle: other) 103 % of control.
For `CN1CCC(CCOCc2ccccc2)(CN2c3ccccc3Sc3ccccc32)C1` (stereo not given), the T/C is, setting by setting: (endpoint: mean survival time, dose: 6.25 mg/kg/injection, schedule: Q04DX003 (ip), vehicle: saline with Tween-80) 106 % of control; (endpoint: mean survival time, dose: 12.5 mg/kg/injection, schedule: Q04DX003 (ip), vehicle: saline with Tween-80) 110 % of control; (endpoint: mean survival time, dose: 25.0 mg/kg/injection, schedule: Q04DX003 (ip), vehicle: saline with Tween-80) 104 % of control.
Turning to `Cc1c(Cl)c(Cl)c(Cl)c(Cl)c1Cl`, the T/C reads like this: under setting [1], 93 % of control; under setting [2], 93 % of control; under setting [3], 92 % of control.
`O=[N+]([O-])c1ccc(/C=C/C=C\c2cccc(S(=O)(=O)F)c2)c(Cl)c1`: the T/C was 100 % of control (endpoint: mean survival time, dose: 100.0 mg/kg/injection, schedule: Q01DX009 (ip), vehicle: acetone); 102 % of control under setting [4]; 104 % of control (endpoint: mean survival time, dose: 200.0 mg/kg/injection, schedule: Q01DX009 (ip), vehicle: acetone); 97 % of control under setting [5]; 104 % of control (endpoint: mean survival time, dose: 400.0 mg/kg/injection, schedule: Q01DX009 (ip), vehicle: acetone); 94 % of control under setting [6].
`O=C(c1ccccc1)C(O)c1ccccc1` (stereo not given): the T/C is, setting by setting: under setting [4], 90 % of control; under setting [5], 96 % of control; under setting [6], 97 % of control.
For the molecule `CC(=O)Nc1ccc(/C=C(\C#N)c2ccc(C)cc2)cc1`, the T/C is 89 % of control under setting [1], 91 % of control under setting [2] and 100 % of control under setting [3].
On to `COc1cc([N+](=O)[O-])ccc1C(=O)O`, for which the T/C (endpoint: mean survival time, dose: 100.0 mg/kg/injection, schedule: Q01DX001 (ip), vehicle: Klucel (hydroxypropylcellulose) (HPC)) was 95 % of control; the T/C (endpoint: mean survival time, dose: 200.0 mg/kg/injection, schedule: Q01DX001 (ip), vehicle: Klucel (hydroxypropylcellulose) (HPC)) was 100 % of control; the T/C (endpoint: mean survival time, dose: 400.0 mg/kg/injection, schedule: Q01DX001 (ip), vehicle: Klucel (hydroxypropylcellulose) (HPC)) is 103 % of control.
Take `NC(CSC(c1ccccc1)(c1ccccc1)c1ccc(F)cc1)C(=O)O` (stereo not given): the T/C is, setting by setting: under setting [7], 181 % of control; under setting [8], 192 % of control.
For the molecule `CN(C)C1c2ccccc2-c2ccc(F)cc21` (stereo not given), the T/C is, setting by setting: (endpoint: mean survival time, dose: 50.0 mg/kg/injection, schedule: Q01DX001 (ip), vehicle: carboxymethylcellulose (CMC)) 107 % of control; (endpoint: mean survival time, dose: 100.0 mg/kg/injection, schedule: Q01DX001 (ip), vehicle: carboxymethylcellulose (CMC)) 113 % of control.
Consider `CC(C)(C)n1cc(C(=O)c2ccccc2)cc1-c1ccccc1`, for which the T/C under setting [4] is 91 % of control, the T/C under setting [5] is 92 % of control and the T/C under setting [6] was 86 % of control.
In the same order, the values of `COc1ccc(Cl)cc1N` are 94 % of control, 92 % of control and 96 % of control.
Consider `Nc1cccc(N2N=C(C(=O)O)CC2=O)c1`, for which the T/C by setting is: under setting [1], 90 % of control; under setting [4], 103 % of control; under setting [2], 91 % of control; under setting [5], 103 % of control; under setting [3], 91 % of control; under setting [6], 101 % of control.
On to `CC([NH-])Cc1ccccc1.CC([NH-])Cc1ccccc1.[Cl][Pt+2][Cl]` (stereo not given), for which the T/C runs as follows: (endpoint: mean survival time, dose: 3.13 mg/kg/injection, schedule: Q04DX003 (ip), vehicle: distilled water + Tween-80) 96 % of control; (endpoint: mean survival time, dose: 6.25 mg/kg/injection, schedule: Q04DX003 (ip), vehicle: distilled water + Tween-80) 96 % of control; (endpoint: mean survival time, dose: 12.5 mg/kg/injection, schedule: Q04DX003 (ip), vehicle: distilled water + Tween-80) 96 % of control; (endpoint: mean survival time, dose: 25.0 mg/kg/injection, schedule: Q04DX003 (ip), vehicle: distilled water + Tween-80) 86 % of control; (endpoint: mean survival time, dose: 50.0 mg/kg/injection, schedule: Q04DX003 (ip), vehicle: distilled water + Tween-80) 86 % of control; (endpoint: mean survival time, dose: 100.0 mg/kg/injection, schedule: Q04DX003 (ip), vehicle: distilled water + Tween-80) 96 % of control. Besides, the T/C (endpoint: mean survival time, dose: 200.0 mg/kg/injection, schedule: Q04DX003 (ip), vehicle: distilled water + Tween-80) is 89 % of control.
For `O=c1cc(CCl)n2cnc3c(ncn3C3OC(CO)C(O)C3O)c2n1` (stereo not given), the T/C (endpoint: median survival time, dose: 12.5 mg/kg/injection, schedule: Q01DX005 (ip), vehicle: saline with Tween-80) is 103 % of control; the T/C (endpoint: median survival time, dose: 25.0 mg/kg/injection, schedule: Q01DX005 (ip), vehicle: saline with Tween-80) is 102 % of control; the T/C (endpoint: median survival time, dose: 50.0 mg/kg/injection, schedule: Q01DX005 (ip), vehicle: saline with Tween-80) was 96 % of control; the T/C (endpoint: median survival time, dose: 100.0 mg/kg/injection, schedule: Q01DX005 (ip), vehicle: saline with Tween-80) was 104 % of control; the T/C (endpoint: median survival time, dose: 200.0 mg/kg/injection, schedule: Q01DX005 (ip), vehicle: saline with Tween-80) was 98 % of control.
`Nc1nc(N)c(N=Nc2ccc(S(=O)(=O)c3ccc(N=Nc4c(N)nc(N)[nH]c4=O)cc3)cc2)c(=O)[nH]1`: the T/C was 102 % of control under setting [1], 92 % of control under setting [2] and 92 % of control under setting [3].
On to `Cc1ccc(CNc2cccnc2)cc1`, for which the T/C is 98 % of control under setting [4], 93 % of control under setting [5] and 95 % of control under setting [6].
Regarding `COC(=O)Nc1ccccc1`, the T/C is 101 % of control (endpoint: mean survival time, dose: 100.0 mg/kg/injection, schedule: Q04DX003 (ip), vehicle: saline + alcohol); 98 % of control (endpoint: mean survival time, dose: 200.0 mg/kg/injection, schedule: Q04DX003 (ip), vehicle: saline + alcohol); 98 % of control (endpoint: mean survival time, dose: 400.0 mg/kg/injection, schedule: Q04DX003 (ip), vehicle: saline + alcohol).
For the molecule `N#Cc1nc(-c2ccco2)c(-c2ccco2)nc1C#N`, the T/C is 102 % of control (endpoint: mean survival time, dose: 25.0 mg/kg/injection, schedule: Q04DX002 (ip), vehicle: saline with Tween-80); 90 % of control (endpoint: mean survival time, dose: 50.0 mg/kg/injection, schedule: Q04DX002 (ip), vehicle: saline with Tween-80); 96 % of control (endpoint: mean survival time, dose: 100.0 mg/kg/injection, schedule: Q01DX001 (ip), vehicle: saline with Tween-80); 90 % of control (endpoint: mean survival time, dose: 100.0 mg/kg/injection, schedule: Q04DX002 (ip), vehicle: saline with Tween-80).
As to `C=C(C)CC#N`, the T/C is 92 % of control under setting [8], 95 % of control under setting [9] and 100 % of control under setting [10].
As for `CC(=O)NNC(=O)c1ccccn1`, the T/C reads like this: (endpoint: mean survival time, dose: 12.5 mg/kg/injection, schedule: Q01DX009 (ip), vehicle: saline) 114 % of control; under setting [7], 110 % of control; under setting [8], 104 % of control; (endpoint: mean survival time, dose: 50.0 mg/kg/injection, schedule: Q#A X018 (ip), vehicle: water) 103 % of control; (endpoint: mean survival time, dose: 100.0 mg/kg/injection, schedule: Q01DX001 (ip), vehicle: water) 101 % of control; under setting [9], 104 % of control. The T/C by setting is: (endpoint: mean survival time, dose: 100.0 mg/kg/injection, schedule: Q01DX009 (ip), vehicle: water) 110 % of control; (endpoint: mean survival time, dose: 100.0 mg/kg/injection, schedule: Q01DX009 (sc), vehicle: water) 119 % of control; (endpoint: mean survival time, dose: 200.0 mg/kg/injection, schedule: Q01DX001 (ip), vehicle: water) 109 % of control; (endpoint: mean survival time, dose: 200.0 mg/kg/injection, schedule: Q01DX009 (sc), vehicle: water) 122 % of control.
Consider `Cc1ccc(NC(=O)COc2ccc(Cl)cc2Cl)cc1Cl`, for which the T/C was 93 % of control under setting [4], 98 % of control under setting [5] and 88 % of control under setting [6].
On to `COCCCN=C(N)N`, for which the T/C reads like this: under setting [8], 102 % of control; under setting [9], 105 % of control; under setting [10], 96 % of control.
As to `CNc1ccc(Br)c2c1C(=O)c1ccccc1C2=O`, the T/C was 97 % of control under setting [4], 101 % of control under setting [5] and 95 % of control under setting [6].
With `CCOc1ccc(NC(=S)N(C)C)cc1`, the T/C by setting is: (endpoint: mean survival time, dose: 50.0 mg/kg/injection, schedule: Q01DX009 (ip), vehicle: saline with Tween-80) 94 % of control; under setting [1], 94 % of control; under setting [4], 89 % of control; under setting [2], 90 % of control; under setting [5], 96 % of control.
Consider `O=C(OCC1OCOC(COC(=O)c2ccccc2)C(O)C1O)c1ccccc1` (stereo not given), for which the T/C under setting [4] was 97 % of control, the T/C under setting [5] was 97 % of control and the T/C under setting [6] was 86 % of control.
